We go through four compounds from patent US20190375778A1, “ADENOSINE DERIVATIVES FOR USE IN THE TREATMENT OF CANCER” (NuCana plc, priority 2016, published 2019).

Each structure is given as a SMILES string.

Data set [1] relates to KG1a cell line. Put plainly: Annexin V/propidium iodide cytotoxicity, KG1a unsorted. The format is cell-based. The settings on record: for cytotoxic potency compared in words: KG1a, versus 8-chloroadenosine or other isomers (FIG. 1, FIG. 7); for LD50: Homo sapiens, KG-1a, Annexin V/propidium iodide, 72 hrs. The method, then: (§1) A further comparative analysis of the toxicity of compounds in the KG1a cell line over an extended dose range was carried out, and the relative effect assessed of the compounds on the leukaemic stem cell compartment within the KG1a cell line, across the entire dose range. Thus, experimental tests were performed on certain compounds of the present invention to assess their ability to target cancer stem cells in a leukaemic cell line. The acute myeloid leukaemia (AML) cell line, KG1a, was employed to assess the relative effect of compounds on the stem cell compartment. The KG1a cell line was selected because it manifests a minor stem cell-like compartment with a distinct immunophenotype (Lin^−/CD34^+/CD38^−/CD123^+).
(§2) Cells of the KG1a cell line were maintained in RPMI medium (Invitrogen, Paisley, UK) supplemented with 100 units/ml penicillin, 100 μg/ml streptomycin and 20% foetal calf serum. Cells were subsequently aliquoted (10^5 cells/100 μl) into 96-well plates and were incubated at 37° C. in a humidified 5% carbon dioxide atmosphere for 72 hrs in the presence of nucleoside analogues and their respective nucleotide analogues (known as ProTides) at concentrations that were experimentally determined for each series of compounds. In addition, control cultures were carried out to which no drug was added. Cells were subsequently harvested by centrifugation and were analyzed by flow cytometry using the Annexin V assay.
Cultured cells were harvested by centrifugation and then resuspended in 195 μl of calcium-rich buffer. Subsequently, 5 μl of Annexin V (Caltag Medsystems, Botolph Claydon, UK) was added to the cell suspension and cells were incubated in the dark for 10 mins prior to washing. Cells were finally resuspended in 190 μl of calcium-rich buffer together with 10 μl of propidium iodide. Apoptosis was assessed by dual-colour immunofluorescent flow cytometry as described previously. Subsequently LD50 values (the dose required to kill 50% of the cells in a culture) were calculated for each nucleoside analogue and ProTide.
(§3) The data obtained in these experiments were evaluated using one way ANOVA. All data was confirmed as Gaussian or a Gaussian approximation using the omnibus K2 test. LD50 values were calculated from the non-linear regression and line of best-fit analysis of the sigmoidal dose-response curves. All statistical analyses were performed using Graphpad Prism 6.0 software (Graphpad Software Inc., San Diego, Calif.).

Data set [2] has as its system KG1a leukaemic stem cell compartment (Lin−/CD34+/CD38−/CD123+). Put plainly: Leukaemic stem cell compartment in KG1a. The format is cell-based. The settings on record: for targeting of leukaemic/cancer stem cells in words: KG1a, compared to 8-chloroadenosine (FIG. 2, FIG. 8); for Change relative to control (%): % LSC compartment versus the series' control; for KG-1a (CD34+/CD38−/CD123+) % compartment: LSC as percentage of viable cells left, 72 hrs. The method, then:
as §1, §2
KG1a cells were cultured for 72 hrs in the presence of a wide range of concentrations of each compound assayed. Cells were then harvested and labelled with a cocktail of anti-lineage antibodies (PE-cy7), anti-CD34 (FITC), anti-CD38 (PE) and anti-CD123 (PERCP cy5). The sub-population expressing a leukaemic stem cell (LSC) phenotype were subsequently identified and were expressed as a percentage of all viable cells left in the culture. The percentages of stem cells remaining were then plotted on a dose-response graph and the effects of the compounds were compared with 8-chloroadenosine.
as §3

With `C[C@H](NP(=O)(OC[C@H]1O[C@@H](n2c(Cl)nc3c(N)ncnc32)[C@H](O)[C@@H]1O)Oc1cccc2ccccc12)C(=O)OCc1ccccc1` (single isomer, unassigned) [Isomer A of Compound D], the “cytotoxic potency compared in words” value in data set [1] is “significantly more potent”. For the same compound, the “targeting of leukaemic/cancer stem cells in words” value in data set [2] was “statistically significantly increased ability to target cancer stem cells”.

For `Nc1ncnc2c1nc(Cl)n2[C@@H]1O[C@H](COP(=O)(NCC(=O)OCc2ccccc2)Oc2ccccc2)[C@@H](O)[C@H]1O` (single isomer, unassigned; isomer a) [Isomer A of Compound B], the “cytotoxic potency compared in words” value in data set [1] is listed as “significantly more potent”. In addition, the “targeting of leukaemic/cancer stem cells in words” value in data set [2] is “statistically significantly increased ability to target cancer stem cells”.

For `C[C@H](NP(=O)(OC[C@H]1O[C@@H](n2cnc3c(N)nc(Cl)nc32)[C@H](F)C1O)Oc1cccc2ccccc12)C(=O)OCc1ccccc1` (stereo partly shown) [Comparative compound 1], the LD50 in data set [1] came to 140 nM. For the same compound, in data set [2], the “Change relative to control (%)” value is on record as −0.2% and the “KG-1a (CD34+/CD38−/CD123+) % compartment” value stood at 3.3%.

In turn, `C[C@H](NP(=O)(OC[C@H]1O[C@@H](n2cnc3c(N)nc(Cl)nc32)CC1O)Oc1cccc2ccccc12)C(=O)OCc1ccccc1` (stereo partly shown) [Comparative compound 2] yielded an LD50 in data set [1] of 820 nM. Further, in data set [2], the “Change relative to control (%)” value is −0.5% and the “KG-1a (CD34+/CD38−/CD123+) % compartment” value stood at 3.5%.
